Results taken from patent US10368545B2, “Substituted 2-thioimidazolylcarboxamides as pesticides” (BAYER CROPSCIENCE AKTIENGESELLSCHAFT, priority 2015, dated 2019).
Values joined by “and” are separate entries in the source; they are usually repeats but may differ in a detail not shown here. Equal entries are not always repeated. Where two headings read alike, the source gives them in different places.

How the values were obtained:
[1] = log P by HPLC on reversed-phase C18 columns (OECD Guideline 117); format: physicochemical; conditions: for logP[a]: method [a]; for logP[b]: method [b]; for chromatographic logP: reversed-phase C18 HPLC column
Experimental: The log P values were determined in accordance with OECD Guideline 117 (EC Directive 92/69/EEC) by HPLC (high-performance liquid chromatography) using reversed-phase (RP) columns (C18), by the following methods:
[a] The LC-MS determination in the acidic range was carried out at pH 2.7 with 0.1% aqueous formic acid and acetonitrile (contains 0.1% formic acid) as mobile phases; linear gradient from 10% acetonitrile to 95% acetonitrile.
[b] LC-MS determination in the neutral range was carried out at pH 7.8 with 0.001 molar aqueous ammonium hydrogencarbonate solution and acetonitrile as mobile phases; linear gradient from 10% acetonitrile to 95% acetonitrile.

[2] = system: green peach aphid (Myzus persicae); assay: Myzus persicae spray test (Chinese cabbage leaf discs); format: in vivo; conditions: after 5 or 6 days, Chinese cabbage leaf discs
Experimental: Myzus persicae—Spray Test
Solvent: 78 parts by weight of acetone • • 1.5 parts by weight of dimethylformamide
(§1) Emulsifier: alkylaryl polyglycol ether
(§2) To produce a suitable active compound preparation, 1 part by weight of active compound is dissolved using the stated parts by weight of solvent and made up with water containing an emulsifier concentration of 1000 ppm until the desired concentration is attained. To produce further test concentrations, the preparation is diluted with emulsifier-containing water.
Discs of Chinese cabbage leaves (Brassica pekinensis) infested by all stages of the green peach aphid (Myzus persicae) are sprayed with an active compound preparation of the desired concentration.
After 5 or 6 days, the efficacy in % is determined. 100% means that all the aphids were killed; 0% means that no aphids were killed.

[3] = system: greenhouse red spider mite (Tetranychus urticae); assay: Contrasting example: Tetranychus urticae spray test, OP resistant (TETRUR); format: in vivo; conditions: 500 g ai/ha, 6 dat
Experimental: Tetranychus urticae—Spray Test; OP Resistant (TETRUR)
(§3) Solvents: 78.0 parts by weight of acetone • • 1.5 parts by weight of dimethylformamide
as §1, §2
Discs of bean leaves (Phaseolus vulgaris), infested by all stages of the greenhouse red spider mite (Tetranychus urticae) are sprayed with an active compound preparation of the desired concentration.
After the desired period of time, the efficacy in % is determined. 100% means that all spider mites were killed; 0% means that no spider mites were killed.

[4] = system: green peach aphid (Myzus persicae); assay: Contrasting example: Myzus persicae spray test (MYZUPE); format: in vivo; conditions: MYZUPE, 100 g ai/ha
Experimental: Myzus persicae—Spray Test (MYZUPE)
as §3, §1, §2
Discs of Chinese cabbage leaves (Brassica pekinensis), infested by all stages of the green peach aphid (Myzus persicae) are sprayed with an active compound preparation of the desired concentration.
After the desired period of time, the efficacy in % is determined. 100% means that all aphids were killed; 0% means that no aphids were killed.

logP[a] [1] | logP[b] [1] | chromatographic logP ([1]; pH 2.7, acidic range, pH 2.7, 0.1% aqueous formic acid / acetonitrile, read-out: log P[a]) | chromatographic logP ([1]; pH 7.8, neutral range, pH 7.8, 0.001 molar aqueous ammonium hydrogencarbonate / acetonitrile, read-out: log P[n]) | Compound | efficacy (aphids killed) ([2]; application rate 500 g/ha) [%] | % efficacy [3] [%] | % efficacy ([4]; 6 dat) [%] | % efficacy ([4]; 5 dat) [%] | efficacy (aphids killed) ([2]; application rate 100 g/ha) [%] | pest or weed control at 500 g/ha ([2]; Myzus persicae, foliar, application rate 500 g/ha, read-out: efficacy (aphids killed)) [%] | pest or weed control at 100 g/ha ([4]; Myzus persicae, 144 h, 6 dat, read-out: % efficacy) [%]
1.56 | 1.63 | – | – | CN(C(=O)c1cnc(Sc2ccccc2S(=O)(=O)N(C)C)n1C)c1cccnc1 [I-A-69] | 100 | – | 70 | – | – | – | –
1.45 | 1.52 | – | – | CN(C(=O)c1cnc(Sc2ccc(Cl)nc2)n1C)c1cccnc1 [I-A-70] | 100 | – | 70 | – | – | – | –
1.68 | 1.78 | – | – | CN(C(=O)c1cnc(Sc2ccccc2F)n1C)c1cccnc1 [I-A-71] | 100 | – | 70 | – | – | – | –
1.53 | 1.62 | – | – | CN(C(=O)c1cnc(S(=O)(=O)c2ccc(F)cc2)n1C)c1cccnc1 [I-A-82] | 90 | – | 90 | – | – | – | –
1.22 | 1.27 | – | – | CN(C(=O)c1cnc([S+]([O-])c2ccc(F)cc2)n1C)c1cccnc1 (stereo not shown) [I-A-84] | 90 | – | 70 | – | – | – | –
0.59 | 0.80 | – | – | CN(C(=O)c1cnc([S+]([O-])c2ccccn2)n1C)c1cccnc1 (stereo not shown) [I-A-86] | 90 | – | 90 | – | – | – | –
1.04 | 1.20 | – | – | CN(C(=O)c1cnc([S+]([O-])c2ccccc2)n1C)c1cccnc1 (stereo not shown) [I-A-87] | 90 | – | 90 | – | – | – | –
1.18 | 1.39 | – | – | CN(C(=O)c1cnc(Sc2ccc(F)cn2)n1C)c1cccnc1 [I-A-94] | 100 | – | 90 | – | – | – | –
1.41 | 1.39 | – | – | CN(C(=O)c1cnc([S+]([O-])c2cccc(C(F)(F)F)c2)n1C)c1ccc[n+]([O-])c1 (stereo not shown) [I-A-95] | 100 | – | – | 90 | – | – | –
1.74 | 1.80 | – | – | CN(C(=O)c1cnc([S+]([O-])c2cccc(C(F)(F)F)c2)n1C)c1cccnc1 (stereo not shown) [I-A-96] | 100 | – | – | 90 | – | – | –
0.45 | 0.48 | – | – | CN(C(=O)c1cnc([S+]([O-])c2ncccn2)n1C)c1cccnc1 (stereo not shown) [I-A-97] | 90 | – | 70 | – | – | – | –
1.58 | – | – | – | CN(C(=O)c1cnc(Sc2nccc(C(F)(F)F)n2)n1C)c1cccnc1 [I-A-100] | 90 | – | 90 | – | – | – | –
1.00 | – | – | – | Cc1ccnc(Sc2ncc(C(=O)N(C)c3cccnc3)n2C)n1 [I-A-101] | 100 | – | 90 | – | – | – | –
1.61 | 1.79 | – | – | COc1cc(OC)nc(Sc2ncc(C(=O)N(C)c3cccnc3)n2C)n1 [I-A-102] | 100 | – | 90 | – | – | – | –
0.97 | – | – | – | Cc1cnc(Sc2ncc(C(=O)N(C)c3cccnc3)n2C)nc1 [I-A-104] | 100 | – | 90 | – | – | – | –
1.20 | – | – | – | COc1ccnc(Sc2ncc(C(=O)N(C)c3cccnc3)n2C)n1 [I-A-106] | 100 | – | 90 | – | – | – | –
1.28 | 1.43 | – | – | Cc1cccc(Sc2ncc(C(=O)N(C)c3cccnc3)n2C)n1 [I-A-108] | 100 | – | 70 | – | – | – | –
0.56 | 0.85 | – | – | CN(C(=O)c1cnc(SCc2ncccn2)n1C)c1cccnc1 [I-A-112] | 100 | – | 90 | – | – | – | –

logP[a] [1] | logP[b] [1] | chromatographic logP ([1]; pH 2.7, acidic range, pH 2.7, 0.1% aqueous formic acid / acetonitrile, read-out: log P[a]) | chromatographic logP ([1]; pH 7.8, neutral range, pH 7.8, 0.001 molar aqueous ammonium hydrogencarbonate / acetonitrile, read-out: log P[n]) | Compound | efficacy (aphids killed) ([2]; application rate 500 g/ha) [%] | % efficacy [3] [%] | % efficacy ([4]; 6 dat) [%] | % efficacy ([4]; 5 dat) [%] | efficacy (aphids killed) ([2]; application rate 100 g/ha) [%] | pest or weed control at 500 g/ha ([2]; Myzus persicae, foliar, application rate 500 g/ha, read-out: efficacy (aphids killed)) [%] | pest or weed control at 100 g/ha ([4]; Myzus persicae, 144 h, 6 dat, read-out: % efficacy) [%]
0.66 | 0.93 | – | – | CN(C(=O)c1cnc(SCc2cnccn2)n1C)c1cccnc1 [I-A-113] | 90 | – | 90 | – | – | – | –
0.16 | 1.11 | – | – | CN(C(=O)c1cnc(SCc2ccncc2)n1C)c1cccnc1 [I-A-116] | 100 | – | 90 | – | – | – | –
0.63 | 1.16 | – | – | CN(C(=O)c1cnc(SCc2ccccn2)n1C)c1cccnc1 [I-A-117] | 90 | – | 90 | – | – | – | –
1.37 | 1.58 | – | – | CN(C(=O)c1cnc(SCc2ccc(Cl)nc2)n1C)c1cccnc1 [I-A-122] | 100 | – | 90 | – | – | – | –
2.47 | 2.54 | – | – | CN(C(=O)c1cnc(SCc2c(Cl)cccc2C(F)(F)F)n1C)c1cccnc1 [I-A-126] | 100 | – | 70 | – | – | – | –
1.41 | 1.68 | – | – | COc1cc(OC)nc(CSc2ncc(C(=O)N(C)c3cccnc3)n2C)n1 [I-A-128] | 90 | – | 90 | – | – | – | –
1.18 | – | – | – | CN(C(=O)c1cnc([S+]([O-])Cc2ccccc2)n1C)c1cccnc1 (stereo not shown) [I-A-130] | 90 | – | – | 90 | – | – | –
1.27 | 1.56 | – | – | CN(C(=O)c1cnc(Sc2nc3ccccc3n2C)n1C)c1cccnc1 [I-A-134] | 100 | – | – | 100 | – | – | –
0.62 | 0.89 | – | – | Cc1nnc(Sc2ncc(C(=O)N(C)c3cccnc3)n2C)o1 [I-A-135] | 100 | – | – | 90 | – | – | –
1.41 | 1.46 | – | – | CCn1c(Sc2ncc(C(=O)N(C)c3cccnc3)n2C)nnc1C(F)(F)F [I-A-137] | 90 | – | – | 90 | – | – | –
1.12 | 1.26 | – | – | CN(C(=O)c1cnc(Sc2nnc(C(F)(F)F)n2C)n1C)c1cccnc1 [I-A-138] | 100 | – | – | 90 | – | – | –
0.87 | 1.00 | – | – | CN(C(=O)c1cnc(Sc2nnc(C(F)F)n2C)n1C)c1cccnc1 [I-A-139] | 100 | – | – | 90 | – | – | –
1.92 | 1.96 | – | – | CN(C(=O)c1cnc(Sc2nnc(-c3ccccc3)s2)n1C)c1cccnc1 [I-A-140] | 100 | – | – | 70 | – | – | –
1.39 | 1.84 | – | – | CN(C(=O)c1cnc(Sc2ncc(-c3ccccc3)n2C)n1C)c1cccnc1 [I-A-141] | 100 | – | – | 70 | – | – | –
1.31 | 1.47 | – | – | Cc1nc(Sc2ncc(C(=O)N(C)c3cccnc3)n2C)oc1C [I-A-142] | 90 | – | – | 90 | – | – | –
– | 0.86 | – | – | CN(C(=O)c1cnc(Sc2nccn2C)n1C)c1cccnc1 [I-A-144] | 100 | – | – | 90 | – | – | –
1.11 | 1.27 | – | – | CCn1c(C(=O)N(C)c2cccnc2)cnc1Sc1ncccn1 [I-A-146] | – | – | – | 90 | 90 | – | –
– | – | 0.42 | 0.83 | CN(C(=O)c1cn(C)c(Sc2ncccn2)n1)c1cccnc1 [I-B-1] | – | – | – | – | – | 100 | 90

Compound | logP[a] [1] | logP[b] [1] | chromatographic logP ([1]; pH 2.7, acidic range, pH 2.7, 0.1% aqueous formic acid / acetonitrile, read-out: log P[a]) | chromatographic logP ([1]; pH 7.8, neutral range, pH 7.8, 0.001 molar aqueous ammonium hydrogencarbonate / acetonitrile, read-out: log P[n]) | efficacy (aphids killed) ([2]; application rate 500 g/ha) [%] | % efficacy [3] [%] | % efficacy ([4]; 6 dat) [%] | % efficacy ([4]; 5 dat) [%] | efficacy (aphids killed) ([2]; application rate 100 g/ha) [%] | pest or weed control at 500 g/ha ([2]; Myzus persicae, foliar, application rate 500 g/ha, read-out: efficacy (aphids killed)) [%] | pest or weed control at 100 g/ha ([4]; Myzus persicae, 144 h, 6 dat, read-out: % efficacy) [%]
CON=C(C)CSc1ncc(C(=O)N(C)c2cccnc2)n1C [I-A-39] | 1.13 | 1.37 and 1.45 | – | – | 90 | 70 | – | – | – | – | –
CN(C(=O)c1cnc(Sc2ncc(F)cn2)n1C)c1cccnc1 [I-A-107] | 1.04 | 1.20 | – | – | 90 | 70 | 90 | – | – | – | –
CN(C(=O)c1cnc(Sc2ncccc2C(F)(F)F)n1C)c1cccnc1 [I-A-110] | 1.77 | 1.93 | – | – | 100 | 70 | 100 | – | – | – | –
CN(C(=O)c1cnc(SCc2c(Cl)cccc2Cl)n1C)c1cccnc1 [I-A-125] | 2.09 | 2.28 | – | – | 90 | 70 | 70 | – | – | – | –
